From patent publication US9067943B2, “[1,2,3]triazolo[4,5-D]pyrimidine derivatives” (priority 2011, dated 2015) come the findings set out here.

One assay has as its target T1, human CB1 receptors (Homo sapiens, UniProt P21554).
T1 construct: expressed in transfected cells; host or cells: CHO cells
Briefly: cAMP assay. It counts as cell-based. The gist of the method:
(§1)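 CHO cells expressing human CB1 or CB2 were preincubated 30 min at 30 °C in Krebs Ringer bicarbonate buffer with 1 mM IBMX, then exposed to compounds for 30 min at 30 °C. cAMP was measured by time-resolved FRET against a cAMP standard curve, and EC50 values were derived.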
For orientation: cAMP levels reflect the balance of adenylyl cyclase and phosphodiesterase activity.

The target in another assay is T2, human CB2 receptors (Homo sapiens, UniProt P34972).
T2 construct: expressed in transfected cells; host or cells: CHO cells
T2 sequence (P34972 whole entry): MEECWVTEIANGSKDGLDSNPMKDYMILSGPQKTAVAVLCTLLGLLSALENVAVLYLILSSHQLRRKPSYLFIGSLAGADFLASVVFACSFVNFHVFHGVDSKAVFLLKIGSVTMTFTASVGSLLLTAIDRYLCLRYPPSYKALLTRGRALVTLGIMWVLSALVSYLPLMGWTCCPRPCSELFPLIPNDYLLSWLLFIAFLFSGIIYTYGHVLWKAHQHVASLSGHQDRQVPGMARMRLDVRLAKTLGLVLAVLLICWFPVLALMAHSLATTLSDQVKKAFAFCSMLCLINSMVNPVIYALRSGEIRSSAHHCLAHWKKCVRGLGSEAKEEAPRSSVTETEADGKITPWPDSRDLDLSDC
Nature of the assay: cAMP assay. Type of assay: cell-based. The gist of the method:
as §1

The mark [1] stands for this setting: functional cAMP assay, CHO cells expressing human CB2, read-out: human CB2 EC50.

Like-named read-outs stand apart in the source and are kept apart here. Some results are limits rather than exact numbers.

T1 sequence (P21554 whole entry): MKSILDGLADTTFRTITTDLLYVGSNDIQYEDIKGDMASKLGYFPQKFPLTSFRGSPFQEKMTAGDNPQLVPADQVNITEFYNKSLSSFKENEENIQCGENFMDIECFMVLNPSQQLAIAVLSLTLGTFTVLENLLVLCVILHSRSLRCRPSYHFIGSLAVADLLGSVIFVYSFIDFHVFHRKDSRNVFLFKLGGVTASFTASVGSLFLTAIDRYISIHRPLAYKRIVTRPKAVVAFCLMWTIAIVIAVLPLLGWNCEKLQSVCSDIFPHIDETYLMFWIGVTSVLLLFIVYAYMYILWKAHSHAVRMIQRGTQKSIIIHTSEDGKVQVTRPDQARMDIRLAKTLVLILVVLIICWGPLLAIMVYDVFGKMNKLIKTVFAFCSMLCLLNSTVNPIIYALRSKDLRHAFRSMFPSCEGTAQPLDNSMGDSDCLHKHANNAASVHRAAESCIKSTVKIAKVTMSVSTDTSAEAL

Broadly, the EC50 is the concentration at which the effect is half-maximal. For the compound `Cc1nnc(Cn2nc3nc(C(C)(C)C)nc(N4CC(F)(F)C(F)(F)C4)c3n2)n1C` [Example 103, 5-tert-Butyl-2-(4,5-dimethyl-4H-[1,2,4]triazol-3-ylmethyl)-7-(3,3,4,4-tetrafluoro-pyrrolidin-1-yl)-2H-[1,2,3]triazolo[4,5-d]pyrimidine], the EC50 was above 10000 nM at human CB1 receptors and 20.9 nM at human CB2 receptors.

With `Cc1nnc(Cn2nc3nc(C(C)(C)C)nc(N4CC[C@@](C)(O)C4)c3n2)o1` [Example 128-b, (R)-1-[5-tert-Butyl-2-(5-methyl-[1,3,4]oxadiazol-2-ylmethyl)-2H-[1,2,3]triazolo[4,5-d]pyrimidin-7-yl]-3-methyl-pyrrolidin-3-ol], the EC50 on human CB1 receptors was above 10000 nM; at human CB2 receptors it was 789 nM.

Regarding `Cn1nnnc1Cn1nc2nc(C(C)(C)C)nc(N3CCC(F)(F)C3)c2n1` [Example 68, 5-tert-Butyl-7-(3,3-difluoro-pyrrolidin-1-yl)-2-(1-methyl-1H-tetrazol-5-ylmethyl)-2H-[1,2,3]triazolo[4,5-d]pyrimidine], the concentration giving a half-maximal response (EC50) was above 10000 nM at human CB1 receptors and 2.3 nM on human CB2 receptors.

As to `CC(C)(C)c1nc(N2CCC(F)(F)C2)c2nn(Cc3ccncc3)nc2n1` [Example 17, 5-tert-Butyl-7-(3,3-difluoro-pyrrolidin-1-yl)-2-pyridin-4-ylmethyl-2H-[1,2,3]triazolo[4,5-d]pyrimidine], the values for the EC50 on human CB1 receptors and at human CB2 receptors were above 10000 nM and 0.8 nM, respectively.

As for “5-tert-Butyl-2-(1-cyclopropyl-1H-tetrazol-5-ylmethyl)-7-(2-oxa-6-aza-spiro[3.3]hept-6-yl)-2H-[1,2,3]triazolo[4,5-d]pyrimidine [Example 105]”, the EC50 is above 10000 nM at human CB1 receptors (functional cAMP assay, head printed human CB2 (probably human CB1), read-out: human CB2 EC50) and 110 nM at human CB2 receptors (setting [1]).

Consider `Cc1nnc(Cn2nc3nc(C(C)(C)C)nc(N4CC5(COC5)C4)c3n2)n1C` [Example 106, 5-tert-Butyl-2-(4,5-dimethyl-4H-[1,2,4]triazol-3-ylmethyl)-7-(2-oxa-6-aza-spiro[3.3]hept-6-yl)-2H-[1,2,3]triazolo[4,5-d]pyrimidine], for which the concentration for a half-maximal effect (EC50) on human CB1 receptors was above 10000 nM; at human CB2 receptors it was 62.7 nM.

On to `CC(C)(C)c1nc(N2CC[C@](C)(O)C2)c2nn(Cc3ccccc3S(C)(=O)=O)nc2n1` [Example 126-a, (S)-1-[5-tert-Butyl-2-(2-methanesulfonyl-benzyl)-2H-[1,2,3]triazolo[4,5-d]pyrimidin-7-yl]-3-methyl-pyrrolidin-3-ol], for which the EC50 on human CB1 receptors is above 10000 nM; on human CB2 receptors it was 10.6 nM.

As for `Cc1nonc1Cn1nc2nc(C(C)(C)C)nc(N3CCC(F)(F)C3)c2n1` [Example 39, 5-tert-Butyl-7-(3,3-difluoro-pyrrolidin-1-yl)-2-(4-methyl-furazan-3-ylmethyl)-2H-[1,2,3]triazolo[4,5-d]pyrimidine], the EC50 on human CB1 receptors is above 10000 nM; at human CB2 receptors it was 0.2 nM.

Regarding `CC(C)(C)c1nc(N2CCC(F)(F)C2)c2nn(CCc3ccccc3)nc2n1` [Example 26, 5-tert-Butyl-7-(3,3-difluoro-pyrrolidin-1-yl)-2-phenethyl-2H-[1,2,3]triazolo[4,5-d]pyrimidine], the values for the EC50 at human CB1 receptors and at human CB2 receptors were 386 nM and 1.3 nM, respectively.

In the case of `C[C@@H](c1ccccc1Cl)n1nc2nc(C(C)(C)C)nc(N3CCC(F)(F)C3)c2n1` [Example 29, 5-tert-Butyl-2-[(S)-1-(2-chloro-phenyl)-ethyl]-7-(3,3-difluoro-pyrrolidin-1-yl)-2H-[1,2,3]triazolo[4,5-d]pyrimidine], the EC50 worked out at 98 nM on human CB1 receptors and 0.8 nM at human CB2 receptors.

As to `CC(C)(C)c1nc(N2CC[C@@](C)(O)C2)c2nn(Cc3ccccc3Cl)nc2n1` [Example 124-b, (R)-1-[5-tert-Butyl-2-(2-chloro-benzyl)-2H-[1,2,3]triazolo[4,5-d]pyrimidin-7-yl]-3-methyl-pyrrolidin-3-ol], the EC50 at human CB1 receptors was above 10000 nM; on human CB2 receptors it was 6.8 nM.

For `COc1ccc(F)c(Cn2nc3nc(C(C)(C)C)nc(N4CCC(F)(F)C4)c3n2)c1Cl` [Example 57, 5-tert-Butyl-2-(2-chloro-6-fluoro-3-methoxy-benzyl)-7-(3,3-difluoro-pyrrolidin-1-yl)-2H-[1,2,3]triazolo[4,5-d]pyrimidine], the concentration for a half-maximal effect (EC50) on human CB1 receptors was above 10000 nM; at human CB2 receptors, 3.6 nM.

Turning to `CC(C)(C)c1nc(N2CCC(F)(F)C2)c2nn([C@@H]3CCOC3)nc2n1` [Example 45, 5-tert-Butyl-7-(3,3-difluoro-pyrrolidin-1-yl)-2-(R)-tetrahydro-furan-3-yl-2H-[1,2,3]triazolo[4,5-d]pyrimidine], the 50% effective concentration (EC50) is above 10000 nM on human CB1 receptors and 7.6 nM on human CB2 receptors.

For `CC(C)(C)c1nc(N2CC[C@H](O)C2)c2nn(Cc3cccnc3Nc3ccc([N+](=O)[O-])c4nonc34)nc2n1` [Example 93, (S)-1-{5-tert-Butyl-2-[2-(7-nitro-benzo[1,2,5]oxadiazol-4-ylamino)-pyridin-3-ylmethyl]-2H-[1,2,3]triazolo[4,5-d]pyrimidin-7-yl}-pyrrolidin-3-ol], the EC50 on human CB1 receptors is above 10000 nM; on human CB2 receptors (setting [1]), 270 nM.

Turning to `CC(C)(C)c1nc(N2CC3(COC3)C2)c2nn(Cc3ncccc3Cl)nc2n1` [Example 108, 5-tert-Butyl-2-(3-chloro-pyridin-2-ylmethyl)-7-(2-oxa-6-aza-spiro[3.3]hept-6-yl)-2H-[1,2,3]triazolo[4,5-d]pyrimidine], the results for the concentration for a half-maximal effect (EC50) on human CB1 receptors and on human CB2 receptors were 362 nM and 5.2 nM, respectively.

With `Cn1nncc1Cn1nc2nc(C(C)(C)C)nc(N3CCC(F)(F)C3)c2n1` [Example 82, 5-tert-Butyl-7-(3,3-difluoro-pyrrolidin-1-yl)-2-(3-methyl-3H-[1,2,3]triazol-4-ylmethyl)-2H-[1,2,3]triazolo[4,5-d]pyrimidine], the EC50 was above 10000 nM on human CB1 receptors and 2.8 nM on human CB2 receptors.

For the compound `CC(C)(C)c1nc(N2CCC(F)(F)C2)c2nn(Cc3c(Cl)cccc3Cl)nc2n1` [Example 12, 5-tert-Butyl-2-(2,6-dichloro-benzyl)-7-(3,3-difluoro-pyrrolidin-1-yl)-2H-[1,2,3]triazolo[4,5-d]pyrimidine], the EC50 at human CB1 receptors was above 10000 nM; at human CB2 receptors it was 1.5 nM.

For `Cn1nncc1Cn1nc2nc(C(C)(C)C)nc(N3CC[C@H](O)C3)c2n1` [Example 90, (S)-1-[5-tert-Butyl-2-(3-methyl-3H-[1,2,3]triazol-4-ylmethyl)-2H-[1,2,3]triazolo[4,5-d]pyrimidin-7-yl]-pyrrolidin-3-ol], the EC50 is above 10000 nM at human CB1 receptors and 40.7 nM at human CB2 receptors.

In the case of `CC(C)(C)Nc1nc(N2CCC(F)(F)C2)c2nn(Cc3ccccc3C(F)(F)F)nc2n1` [Example 136, tert-Butyl-[7-(3,3-difluoro-pyrrolidin-1-yl)-2-(2-trifluoromethyl-benzyl)-2H-[1,2,3]triazolo[4,5-d]pyrimidin-5-yl]-amine], the values for the EC50 on human CB1 receptors and at human CB2 receptors were above 10000 nM and 35 nM, respectively.

For the compound `CC(C)(C)c1nc(N2CCC(F)(F)C2)c2nn(Cc3cccc(Cl)c3)nc2n1` [Example 7, 5-tert-Butyl-2-(3-chloro-benzyl)-7-(3,3-difluoro-pyrrolidin-1-yl)-2H-[1,2,3]triazolo[4,5-d]pyrimidine], the EC50 at human CB1 receptors is above 10000 nM; on human CB2 receptors it was 4.1 nM.

As for `CC(C)(C)c1nc(N2CC[C@@](C)(O)C2)c2nn(Cc3ccccc3C(F)(F)F)nc2n1` [Example 125-b, (R)-1-[5-tert-Butyl-2-(2-trifluoromethyl-benzyl)-2H-[1,2,3]triazolo[4,5-d]pyrimidin-7-yl]-3-methyl-pyrrolidin-3-ol], the 50% effective concentration (EC50) is above 10000 nM at human CB1 receptors and 3.7 nM on human CB2 receptors.

`CC(C)(C)c1nc(N2CCC(F)(F)C2)c2nn(CCO)nc2n1` [Example 5, 2-[5-tert-Butyl-7-(3,3-difluoro-pyrrolidin-1-yl)-[1,2,3]triazolo[4,5-d]pyrimidin-2-yl]-ethanol]: the values for the EC50 on human CB1 receptors and at human CB2 receptors were above 10000 nM and 64.7 nM, respectively.

For the compound `CC(C)(C)c1nc(N2CC[C@](C)(O)C2)c2nn(CCC(F)(F)F)nc2n1` [Example 132-a, (S)-1-[5-tert-Butyl-2-(3,3,3-trifluoro-propyl)-2H-[1,2,3]triazolo[4,5-d]pyrimidin-7-yl]-3-methyl-pyrrolidin-3-ol], the values for the EC50 at human CB1 receptors and at human CB2 receptors were above 10000 nM and 18.1 nM, respectively.

As to `CC(C)(C)c1nc(N2CCC(F)(F)C2)c2nn(Cc3ccccn3)nc2n1` [Example 15, 5-tert-Butyl-7-(3,3-difluoro-pyrrolidin-1-yl)-2-pyridin-2-ylmethyl-2H-[1,2,3]triazolo[4,5-d]pyrimidine], the concentration for a half-maximal effect (EC50) at human CB1 receptors turned out to be 210 nM; on human CB2 receptors it was 0.7 nM.

In the case of `CC(C)(C)c1nc(N2CCC(F)(F)C2)c2nn(Cc3c(F)ccc(Cl)c3Cl)nc2n1` [Example 48, 5-tert-Butyl-2-(2,3-dichloro-6-fluoro-benzyl)-7-(3,3-difluoro-pyrrolidin-1-yl)-2H-[1,2,3]triazolo[4,5-d]pyrimidine], the concentration giving a half-maximal response (EC50) on human CB1 receptors was above 10000 nM; on human CB2 receptors, 5.5 nM.

`CC(C)(C)c1nc(N2CCC(F)(F)C2)c2nn(Cc3c(F)ccc(F)c3Cl)nc2n1` [Example 20, 5-tert-Butyl-2-(2-chloro-3,6-difluoro-benzyl)-7-(3,3-difluoro-pyrrolidin-1-yl)-2H-[1,2,3]triazolo[4,5-d]pyrimidine]: the results for the EC50 on human CB1 receptors and at human CB2 receptors were 34 nM and 0.2 nM, respectively.

`CC(C)(C)c1nc(N2CC[C@H](O)[C@@H]2CO)c2nn(Cc3nnnn3C3CC3)nc2n1` [Example 97, (2S,3S)-1-[5-tert-Butyl-2-(1-cyclopropyl-1H-tetrazol-5-ylmethyl)-2H-[1,2,3]triazolo[4,5-d]pyrimidin-7-yl]-2-hydroxymethyl-pyrrolidin-3-ol]: the EC50 on human CB1 receptors was above 10000 nM; at human CB2 receptors (setting [1]) it was 144 nM.

In the case of `CC(C)(C)c1nc(N2CCC(F)(F)C2)c2nn(Cc3ccccc3S(C)(=O)=O)nc2n1` [Example 49, 5-tert-Butyl-7-(3,3-difluoro-pyrrolidin-1-yl)-2-(2-methanesulfonyl-benzyl)-2H-[1,2,3]triazolo[4,5-d]pyrimidine], the EC50 was 150 nM on human CB1 receptors and 0.4 nM on human CB2 receptors.
